# Data from the C3SDB collision cross section collection.
# Conditions: instrument: DT, single field, calibrated with Agilent tune mix (Agilent)
Compound,collision cross section (N2) ([M+H]+) [Å²],collision cross section (N2) ([M-H]-) [Å²],collision cross section (N2) ([M+Na]+) [Å²],further results
Nc1ccn([C@@H]2O[C@H](COP(=O)(O)O)[C@@H](O)[C@H]2O)c(=O)n1 [Cytidine 5'-monophosphate],166.3,–,–,–
OC[C@H]1OC(O)[C@H](O)[C@H](O)[C@@H]1O (stereo partly drawn) [D-Allose],–,–,143.1,–
O=C(O)[C@@H](O)[C@H](O)[C@H](O)[C@@H](O)C(=O)O [D-Galactarate],–,130.24,147.3,–
OC[C@@H](O)[C@@H](O)[C@H](O)[C@H](O)CO [D-Mannitol],–,–,141,–
O=P(O)(O)OC1O[C@H](CO)[C@@H](O)[C@H](O)[C@@H]1O (stereo partly drawn) [D-Mannose 1-phosphate],–,143.99,158.3,–
O=C(O)[C@H]1CCCN1 [D-Proline],125,122.49,–,–
Nc1ncnc2c1ncn2[C@H]1C[C@H](O)[C@@H](CO)O1 [Deoxyadenosine],152.3,152.2,–,–
CC(C)(COP(=O)(O)OP(=O)(O)OC[C@H]1O[C@@H](n2cnc3c(N)ncnc32)[C@H](O)[C@@H]1O)[C@@H](O)C(=O)NCCC(=O)NCCS [Dephosphocoenzyme A],238.6,232.51,–,–
CC(C)[C@@H](C)/C=C/[C@@H](C)[C@H]1CC[C@H]2/C(=C/C=C3\C[C@@H](O)CC[C@@H]3C)CCC[C@]12C [Dihydrotachysterol],205.8,–,–,–
OC[C@@H](O)[C@H](O)[C@H](O)[C@@H](O)CO [Dulcitol],–,128.77,141.7,–
CC/C=C\C/C=C\C/C=C\C/C=C\C/C=C\CCCC(=O)O [Eicosapentaenoic acid],–,178.53,–,–
C[C@]12CC[C@@H]3c4ccc(O)cc4CC[C@H]3[C@@H]1CCC2=O [Estrone],164.3,170.63,–,–
Nc1nc(=O)c2nc(CNc3ccc(C(=O)N[C@@H](CCC(=O)O)C(=O)O)cc3)cnc2[nH]1 [Folate],195.5,–,–,–
C[C@@H]1OC(OP(=O)(O)OP(=O)(O)OC[C@H]2O[C@@H](n3cnc4c(=O)nc(N)[nH]c43)[C@H](O)[C@@H]2O)[C@@H](O)[C@H](O)[C@@H]1O (stereo partly drawn) [GDP-L-Fucose],217.2,206.72,–,–
Nc1nc(=O)c2ncn([C@@H]3O[C@H](COP(=O)(O)OP(=O)(O)O)[C@@H](O)[C@H]3O)c2[nH]1 [GDP],191.5,–,–,–
OC[C@H]1O[C@H](OC2[C@@H](O)[C@H](O)C(O)[C@H](O)[C@@H]2O)[C@H](O)[C@@H](O)[C@H]1O (some centres not stated) [Galactinol],–,–,177.7,collision cross section (N2) ([M+Na-2H]-): 168.98 Å²
O=Cc1cc(O)ccc1O [Gentisaldehyde],122,119.54,–,–
C[N+](C)(C)CCOP(=O)([O-])OC[C@H](O)CO [Glycerophosphocholine],155.5,–,–,–

Compound,collision cross section (N2) ([M+H]+) [Å²],collision cross section (N2) ([M-H]-) [Å²],collision cross section (N2) ([M+Na]+) [Å²],further results
C[C@H](CCC(=O)NCC(=O)O)[C@H]1CC[C@H]2[C@@H]3[C@H](O)C[C@@H]4C[C@H](O)CC[C@]4(C)[C@H]3CC[C@]12C [Glycochenodeoxycholate],–,198.85,203.3,–
C[C@H](CCC(=O)NCC(=O)O)[C@H]1CC[C@H]2[C@@H]3CC[C@@H]4C[C@H](O)CC[C@]4(C)[C@H]3C[C@H](O)[C@]12C [Glycodeoxycholic acid],–,197.81,203.9,–
NC(N)=NCC(=O)O [Guanidoacetic acid],124.8,–,–,–
CC(C)(COP(=O)(O)OP(=O)(O)OC[C@H]1O[C@@H](n2cnc3c(N)ncnc32)[C@H](O)[C@@H]1OP(=O)(O)O)[C@@H](O)C(=O)NCCC(=O)NCCSC(=O)C[C@@](C)(O)CC(=O)O [HMG-CoA],–,259.35,–,–
O=C(O)CC[C@@](O)(CC(=O)O)C(=O)O [Homocitrate],–,129.99,145,–
N[C@@H](C[C@@H](O)C(=O)O)C(=O)O [L-Erythro-4-Hydroxyglutamic acid],135.8,–,–,collision cross section (N2) ([M-H2O-H]-): 123.86 Å²
NC(=O)CC[C@H](N)C(=O)O [L-Glutamine],–,–,133.7,–
O=C(O)[C@H](O)[C@@H](O)CO [L-Threonate],–,116.84,–,–
N[C@@H](Cc1cc(I)c(Oc2cc(I)c(O)c(I)c2)c(I)c1)C(=O)O [L-Thyroxine],216.2,–,–,collision cross section (N2) ([M+Na-2H]-): 194.19 Å²
CCCCCCCCCCCC(=O)SCCNC(=O)CCNC(=O)[C@H](O)C(C)(C)COP(=O)(O)OP(=O)(O)OC[C@H]1O[C@@H](n2cnc3c(N)ncnc32)[C@H](O)[C@@H]1OP(=O)(O)O [Lauroyl-CoA],284,283.18,–,–
N[C@@H](Cc1cc(I)c(Oc2ccc(O)c(I)c2)c(I)c1)C(=O)O [Liothyronine],209.7,–,–,collision cross section (N2) ([M+Na-2H]-): 185.23 Å²
N#CC(O)c1ccccc1 (configuration not stated) [Mandelonitrile],128.9,–,–,–
CC1=CC(=O)c2ccccc2C1=O [Menadione (Vitamin K3)],134.6,–,–,–
CC1=CC(=O)c2ccccc2C1=O [Menadione],–,129.79,–,–
CCCCCCCCCCCCCC(=O)SCCNC(=O)CCNC(=O)C(O)C(C)(C)COP(=O)(O)OP(=O)(O)OC[C@H]1O[C@@H](n2cnc3c(N)ncnc32)[C@H](O)[C@@H]1OP(=O)(O)O (some centres not stated) [Myristoyl-coenzyme A],289.9,290.65,–,–
"CN(C)c1nc(=O)c2ncn([C@@H]3O[C@H](CO)[C@@H](O)[C@H]3O)c2[nH]1 [N2,N2-Dimethylguanosine]",170.6,169.16,–,–
CC(=O)N[C@H]1C(O)O[C@H](COP(=O)(O)O)[C@@H](O)[C@@H]1O (stereo partly drawn) [N-Acetyl-D-Glucosamine 6-Phosphate],–,152.83,164,–
CC(=O)Nc1ccccc1 [N-Phenylacetamide],–,124.17,–,–

# Further lines, with some results ahead:
collision cross section (N2) ([M+H]+) [Å²],collision cross section (N2) ([M-H]-) [Å²],collision cross section (N2) ([M+Na]+) [Å²],Compound,further results
–,179.08,–,Nc1ccn([C@@H]2O[C@H](COP(=O)(O)OP(=O)(O)OP(=O)(O)O)[C@@H](O)[C@H]2O)c(=O)n1 [Cytidine triphosphate],–
–,–,142.8,C[C@@H](N)C(=O)N[C@H](C)C(=O)O [D-Ala-D-Ala],–
–,134.05,–,C[C@@H](N)C(=O)N[C@H](C)C(=O)O [D-Alanyl-D-alanine],–
–,130.59,–,"O=C1O[C@H](CO)[C@@H](O)[C@H](O)[C@H]1O [D-Glucono-1,5-lactone]",–
–,–,163.3,"O=C(COP(=O)(O)O)[C@H](O)[C@H](O)COP(=O)(O)O [D-Ribulose 1,5-bisphosphate]",collision cross section (N2) ([M+Na-2H]-): 150.9 Å²
–,–,134.6,OC1OC[C@@H](O)[C@H](O)[C@H]1O (stereo partly drawn) [D-Xylose],–
151.7,153.4,–,O=c1nc[nH]c2c1ncn2[C@H]1C[C@H](O)[C@@H](CO)O1 [Deoxyinosine],–
–,–,148.4,O=P(O)(O)OC[C@H]1O[C@@H](O)C[C@@H]1O [Deoxyribose 5-phosphate],–
–,143.1,–,CC(C)=CCOP(=O)(O)OP(=O)(O)O [Dimethylallyl pyrophosphate],–
–,188.85,–,C[C@]12CC[C@@H]3c4ccc(OS(=O)(=O)O)cc4CC[C@H]3[C@@H]1CCC2=O [Estrone 3-sulfate],–
146.7,–,–,O=c1cc(-c2ccccc2)oc2ccccc12 [Flavone],–
218.9,208.72,–,Nc1nc(=O)c2ncn([C@@H]3O[C@H](COP(=O)(O)OP(=O)(O)O[C@H]4O[C@H](CO)[C@@H](O)[C@H](O)[C@H]4O)[C@@H](O)[C@H]3O)c2[nH]1 [GDP-glucose],–
224.7,–,–,N[C@@H](CCC(=O)N[C@@H](CSSC[C@H](NC(=O)CC[C@H](N)C(=O)O)C(=O)NCC(=O)O)C(=O)NCC(=O)O)C(=O)O [Glutathione disulfide],–
–,207.35,220.9,Nc1nc(=O)c2ncn([C@@H]3O[C@H](COP(=O)(O)OP(=O)(O)O[C@H]4O[C@H](CO)[C@@H](O)[C@H](O)[C@@H]4O)[C@@H](O)[C@H]3O)c2[nH]1 [Guanosine diphosphate mannose],–
120,–,–,NCCc1cnc[nH]1 [Histamine],–
–,125.26,–,O=C(O)CC(C(=O)O)C(O)C(=O)O (configuration not stated) [Isocitrate],–
–,–,144.6,C[C@@H]1OC(O)[C@@H](O)[C@H](O)[C@@H]1O (stereo partly drawn) [L-Fucose],–
128.3,126.11,–,N[C@H](CO)Cc1cnc[nH]1 [L-Histidinol],–
154.3,153.53,–,COc1ccc2[nH]cc(CCNC(C)=O)c2c1 [Melatonin],–
132.1,–,–,Cn1cc(C(N)=O)ccc1=O [N1-Methyl-2-pyridone-5-carboxamide],–
162.7,161.4,–,CC(=O)Nc1ccn([C@@H]2O[C@H](CO)[C@@H](O)[C@H]2O)c(=O)n1 [N4-Acetylcytidine],–
142.3,139.75,–,CC(=O)NCCCC[C@H](N)C(=O)O [N6-Acetyl-L-lysine],–
–,–,168.6,CC(=O)N[C@H]1[C@H]([C@H](O)[C@H](O)CO)OC(O)(C(=O)O)C[C@@H]1O (some centres not stated) [N-Acetylneuraminic acid],–
